From paper PMC9606955, “In Vitro Activity of Essential Oils Distilled from Colombian Plants against Candida auris and Other Candida Species with Different Antifungal Susceptibility Profiles” (Molecules, 2022) come the findings set out here.

What is called MIC is the least concentration at which growth counts as inhibited.

The subject of data set [1] is C. tropicalis ATCC 200956. Description: MIC, CLSI M27 broth microdilution. In kind it is cell-based, Candida tropicalis. Particulars: C. tropicalis ATCC 200956, EOs and terpenes. The text has this:
(§1) The fungal strains used in this study were C. albicans ATCC 10231, C. albicans ATCC 64550, C. parapsilosis ATCC 22019, C. tropicalis ATCC 750, C. tropicalis ATCC 200956 (resistant to azoles and AMB), C. glabrata LMDM 34 (resistant to echinocandins), C. metapsilosis MUM 15.12, C. orthopsilosis MUM 17.13, C. lusitaniae MUM 17.08, C. krusei ATCC 6258 (Issatchenkia orientalis ATCC 6258), and C. auris CDC B11903. Additionally, nine clinical isolates were included: C. parapsilosis Synlab 406 (FLC-resistant) and eight C. auris isolates identified by MALDI-TOF MS (Bruker Daltonics, Bremen, Germany) according to Zhao et al.. These yeasts were cultured on Sabouraud Dextrose Agar (SDA; Sigma-Aldrich, St. Louis, MO, USA) for 24 h at 35 °C.
(§2) Antifungal susceptibility testing was performed according to Clinical and Laboratory Standards Institute M27, 4th Edition (CLSI standard M27, 4th Edition). Some modifications were applied for evaluation of the antifungal activity of EOs and terpenes. Initially, a screening was carried out to determine the antifungal activity of the EOs and of commercial terpenes. Stock concentrations of EOs and terpenes were prepared at 512 µg/mL and an inoculum of 2.5 × 10^3 CFU/mL of each yeast was prepared in RPMI 1640-MOPS (Sigma- Aldrich St. Louis, MO, USA). Thereafter, 100 µL of each stock solution of EOs or terpenes was dispensed in 96-well microdilution plates (Corning®, Costar®, NY, USA) and 100 µL of each yeast inoculum was added. […] Microdilution plates were incubated at 35 °C and, after 24 h, the presence or absence of growth was visually checked using a manual mirror viewer and then compared with the amount of growth in the control (no EO or terpene). Compounds able to inhibit yeast growth were tested to determine the minimal inhibitory concentration (MIC) as follows: 100 µL of 10 two-fold dilutions of the EOs or commercial terpenes was dispensed in 96-well microplates and the yeast inoculum was added. Final concentrations of the EOs or terpenes ranged from 0.5 µg/mL to 256 µg/mL. Microdilution plates were incubated at 35 °C for 24 h. MICs were visually determined at the lowest concentration that produced visual inhibition compared to the growth control. The assays were performed at least three times in duplicate on different days. The results were expressed as geometric means (GM) and ranges. As an antifungal susceptibility testing control, the activity of ITC and AMB against the reference strains C. krusei ATCC 6258 and C. parapsilosis ATCC 22019 was evaluated in all experiments following the CLSI standard M27, 4th Edition. It was mandatory that the MIC values remained in the accepted range.
(In general: Broth dilution looks for growth in wells or tubes with falling amounts of substance.)

Data set [2] deals with C. metapsilosis MUM 15.12. Nature of the data set: MIC, CLSI M27 broth microdilution. The data set is classed as cell-based, Candida metapsilosis. Particulars: C. metapsilosis MUM 17.13 (Table 3), EOs and terpenes, 24 h, top concentration 256 µg/mL.
From the text: as §1, §2

For data set [3], the system named is C. orthopsilosis MUM 17.13. Nature of the data set: MIC, CLSI M27 broth microdilution. The data set is classed as cell-based, Candida orthopsilosis. Particulars: C. orthopsilosis MUM 15.12 (Table 3), EOs and terpenes, 24 h, top concentration 256 µg/mL.
From the text: as §1, §2

The subject of data set [4] is C. lusitaniae MUM 17.08. Nature of the data set: MIC, CLSI M27 broth microdilution. Particulars: C. lusitaniae MUM 17.08, EOs and terpenes. The data set is classed as cell-based, Candida lusitaniae.
From the text: as §1, §2

The subject of data set [5] is C. auris CDC B11903. Nature of the data set: MIC, CLSI M27 broth microdilution. In kind it is cell-based, Candida auris. The following applies: C. auris CDC B11903, EOs and terpenes, 24 h, top concentration 256 µg/mL.
From the text: as §1, §2

The test system of data set [6] is C. auris Ca 13. Description: MIC, CLSI M27 broth microdilution. In kind it is cell-based, Candida auris. The following applies: C. auris Ca 13, EOs and terpenes.
From the text: as §1, §2

Data set [7] relates to C. auris Ca 17. Description: MIC, CLSI M27 broth microdilution. In kind it is cell-based, Candida auris. The following applies: C. auris Ca 17, EOs and terpenes, 24 h, top concentration 256 µg/mL.
From the text: as §1, §2

Data set [8] relates to C. auris Ca 1. Description: MIC, CLSI M27 broth microdilution. The data set is classed as cell-based, Candida auris. The following applies: C. auris Ca 1, EOs and terpenes, 24 h, top concentration 256 µg/mL.
From the text: as §1, §2

Data set [9] deals with C. auris Ca 32. Description: MIC, CLSI M27 broth microdilution. In kind it is cell-based, Candida auris. The following applies: C. auris Ca 32, EOs and terpenes.
From the text: as §1, §2

Data set [10] deals with C. auris Ca 41. Description: MIC, CLSI M27 broth microdilution. In kind it is cell-based, Candida auris. Particulars: C. auris Ca 41, EOs and terpenes, 24 h, top concentration 256 µg/mL.
From the text: as §1, §2

Data set [11] relates to C. auris Ca 45. Nature of the data set: MIC, CLSI M27 broth microdilution. The data set is classed as cell-based, Candida auris. The following applies: C. auris Ca 45, EOs and terpenes, 24 h, top concentration 256 µg/mL.
From the text: as §1, §2

Data set [12] concerns C. auris Ca 46. Nature of the data set: MIC, CLSI M27 broth microdilution. In kind it is cell-based, Candida auris. The following applies: C. auris Ca 46, EOs and terpenes, 24 h, top concentration 256 µg/mL.
From the text: as §1, §2

The test system of data set [13] is C. auris Ca 9. Nature of the data set: MIC, CLSI M27 broth microdilution. The data set is classed as cell-based, Candida auris. Particulars: C. auris Ca 9, EOs and terpenes.
From the text: as §1, §2

In data set [14] the test system is C. parapsilosis Synlab 406. Description: MIC, CLSI M27 broth microdilution. The data set is classed as cell-based, Candida parapsilosis. Particulars: C. parapsilosis Synlab 406, EOs and terpenes.
From the text: as §1, §2

The nature of data set [15]: in vitro. The following applies: human.
Protocol: (§4) Cells were cultured in Dulbecco’s Modified Eagle Medium (DMEM; Sigma-Aldrich, St. Louis, MO, USA) supplemented with 10% fetal bovine serum (Invitrogen, Carlsbad, CA, USA), 1% penicillin, streptomycin, and neomycin (Invitrogen, Carlsbad, CA, USA), and 1% L-glutamine (Invitrogen, Carlsbad, CA, USA) at 37 °C in a humidified atmosphere of 5% CO2. […] Afterwards, the culture medium was removed and 3-(4.5-dimethylthiazol-2-yl)-2.5-diphenyltetrazolium bromide (MTT) (Sigma-Aldrich, St. Louis, MO, USA) at 5 mg/mL was added at 37 °C for 2 h. Subsequently, DMSO was added to dissolve the formazan crystals. Finally, the absorbances were measured with a Multiskan SkyHigh Microplate Spectrophotometer (Thermo Fisher Scientific, Waltham, MA, USA) at λ = 570 nm. The CC50 values were obtained by linear regression analysis with concentration–response curves, which were performed with absorbance data using GraphPad Prism software (Prism 9.3.0, San Diego, CA, USA). The assays were conducted at two separate times in triplicate. The data were expressed as means.
The subject of data set [16] is C. krusei ATCC 6258. Nature of the data set: MIC, CLSI M27 broth microdilution. In kind it is cell-based, Candida krusei. The following applies: C. krusei ATCC 6258; EOs and terpenes; 24 h; top concentration 256 µg/mL.
From the text: as §1, §2

Data set [17] relates to C. auris. Nature of the data set: MIC, CLSI M27 broth microdilution, several C. auris strains together. The data set is classed as cell-based, Candida auris. The following applies: over all C. auris strains of Table 4.
From the text: as §1
(§3) Antifungal susceptibility testing was performed according to Clinical and Laboratory Standards Institute M27, 4th Edition (CLSI standard M27, 4th Edition). […] MICs were visually determined at the lowest concentration that produced visual inhibition compared to the growth control. […] The results were expressed as geometric means (GM) and ranges. As an antifungal susceptibility testing control, the activity of ITC and AMB against the reference strains C. krusei ATCC 6258 and C. parapsilosis ATCC 22019 was evaluated in all experiments following the CLSI standard M27, 4th Edition. […]

Data set [18] concerns Candida spp. Nature of the data set: MIC, CLSI M27 broth microdilution, all Candida spp. of Tables 3 and 4 together. The data set is classed as cell-based. Particulars: over all strains of Table 3 and Table 4.
From the text: as §1, §3

Data set [19] has as its system Candida spp. Description: Screening of antifungal activity at 256 µg/mL against twenty strains. The data set is classed as cell-based. Particulars: screening at 256 µg/mL.
From the text: as §1
Antifungal susceptibility testing was performed according to Clinical and Laboratory Standards Institute M27, 4th Edition (CLSI standard M27, 4th Edition). Some modifications were applied for evaluation of the antifungal activity of EOs and terpenes. Initially, a screening was carried out to determine the antifungal activity of the EOs and of commercial terpenes. Stock concentrations of EOs and terpenes were prepared at 512 µg/mL and an inoculum of 2.5 × 10^3 CFU/mL of each yeast was prepared in RPMI 1640-MOPS (Sigma- Aldrich St. Louis, MO, USA). Thereafter, 100 µL of each stock solution of EOs or terpenes was dispensed in 96-well microdilution plates (Corning®, Costar®, NY, USA) and 100 µL of each yeast inoculum was added. […] MICs were visually determined at the lowest concentration that produced visual inhibition compared to the growth control. […] The results were expressed as geometric means (GM) and ranges. As an antifungal susceptibility testing control, the activity of ITC and AMB against the reference strains C. krusei ATCC 6258 and C. parapsilosis ATCC 22019 was evaluated in all experiments following the CLSI standard M27, 4th Edition. […]

Data set [20] deals with HaCaT cell line. Description: Cytotoxicity, MTT assay. Particulars: MTT, 24 h treatment, HaCaT keratinocytes.
Protocol: as §4
Setting [21] is: 24 h, top concentration 256 µg/mL.

In brackets after ≈: the same amount, converted by molar mass.

`C=C(C)[C@@H]1CC=C(CO)CC1` [Perillyl alcohol, perillyl alcohol]: the “Range MIC” value in data set [1] lay within 128 to 256 mg/L; in data set [4], 128 to 256 mg/L; in [14], 64 to 128 mg/L. Besides, the MIC in [1] (Candida tropicalis, ATCC200956, 24 h, top concentration 256 µg/mL, read-out: GM MIC) came out at 181 mg/L (≈ 1190 µM); in data set [2] (Lodderomyces metapsilosis, MUM15.12, read-out: GM MIC), 256 mg/L (≈ 1680 µM); in data set [3] (Lodderomyces orthopsilosis, MUM17.13, read-out: GM MIC) it was 256 mg/L (≈ 1680 µM); in [4] (Clavispora lusitaniae, MUM17.08, 24 h, top concentration 256 µg/mL, read-out: GM MIC), 181 mg/L (≈ 1190 µM); in data set [5] (Candidozyma auris, CDCB11903, read-out: GM MIC), 256 mg/L (≈ 1680 µM); in data set [6] (Candidozyma auris, CA13, 24 h, top concentration 256 µg/mL, read-out: GM MIC), 256 mg/L (≈ 1680 µM). The MIC was 256 mg/L (≈ 1680 µM) in [7] (Candidozyma auris, CA17, read-out: GM MIC); 256 mg/L (≈ 1680 µM) in data set [8] (Candidozyma auris, CA1, read-out: GM MIC); 128 mg/L (≈ 841 µM) in data set [9] (Candidozyma auris, CA32, 24 h, top concentration 256 µg/mL, read-out: GM MIC); 128 mg/L (≈ 841 µM) in data set [10] (Candidozyma auris, CA41, read-out: GM MIC); 256 mg/L (≈ 1680 µM) in data set [11] (Candidozyma auris, CA45, read-out: GM MIC); 256 mg/L (≈ 1680 µM) in [12] (Candidozyma auris, CA46, read-out: GM MIC). Also, the MIC in [13] (Candidozyma auris, CA9, 24 h, top concentration 256 µg/mL, read-out: GM MIC) came to 128 mg/L (≈ 841 µM); in data set [14] (Lodderomyces parapsilosis, SYNLAB406, 24 h, top concentration 256 µg/mL, read-out: GM MIC), 90.5 mg/L (≈ 594 µM). The molecule further gave a CC50 at 24 h in data set [15] of 401 mg/L (≈ 2630 µM).

`C=C(C)[C@H]1CC=C(C)CC1` [Limonene, limonene]: the “GM MIC” value in [16] amounted to 32 mg/L; in [1] (setting [21]) it was 64 mg/L; in [2] it was 64 mg/L; in [3] it was 16 mg/L; in [4] (setting [21]), 22.6 mg/L; in data set [5], 64 mg/L. Besides, the “GM MIC” value in data set [6] (setting [21]) was determined as 22.6 mg/L; in data set [7], 64 mg/L; in data set [8] it was 64 mg/L; in [9] (setting [21]) it was 22.6 mg/L; in data set [10], 16 mg/L; in [11] it was 16 mg/L. Also, the “GM MIC” value in data set [12] came to 16 mg/L; in data set [13] (setting [21]), 22.6 mg/L; in [14] (setting [21]), 64 mg/L. The “Range MIC” value in data set [4], in data set [6], in data set [9] and in [13] was 16 to 32 mg/L throughout. Further, the MIC Range in data set [17] and in [18] was 16 to 64 mg/L in each case. The “antifungal activity in screening” value in [19] is reported as “active against all tested Candida spp”. Besides, in data set [20], the “HaCaT Cells Mean CC50” value came to 400.5 mg/L.
